Test results from patent publication EP0537742B1, “Styrene derivatives” (Mitsubishi Chemical Corporation, priority 1991, dated 1993).
pIC50: −log10 of the molar value. Read-outs that look alike come from different tables or passages of the source.

Key:
[1] = target: T1, human EGF (epidermal cell growth factor) receptor tyrosine kinase (Homo sapiens, UniProt P00533); test: Tyrosine kinase activity inhibition (partially purified EGF receptor from A431 cell membrane fraction, RR-SRC peptide, 32P-ATP); assay type: biochemical; settings: for inhibition at 10 µM: read-out: Inhibitory Rate (%) in the presence of 10 µM; for inhibition at 1 µM: read-out: Inhibitory Rate (%) in the presence of 1 µM
T1 construct: A431 cell membrane fraction, which was provided for the assay as the partially purified EGF receptor, enzyme source; endogenous in cells; host or cells: A431 (human squamous cell carcinoma), crude membrane fraction (27500 x g pellet)
Description: Detailed explanation of the assaying method will be given below.
A431 cells were cultivated in Dulbecco's modified Eagle's medium (DMEM) containing 10% fetal calf serum (FCS) at 37°C in a stream of 5% carbon dioxide, and the resultant cells were homogenized in a solution containing 10 mM N-2-hydroxyethylpiperazino-N'-2-ethanesulfonic acid (Hepes) buffer (pH 7.4), 0.25M sucrose and 0.1 mM EDTA and centrifuged at 1000 g for 5 minutes.
At that time the volume was 60 µl. The reaction was allowed to perform in ice for 30 minutes and stopped by adding 10 mg/ml bovine serum albumin (6 µl) and 20% trichloroacetic acid (25 µl). The mixture was allowed to stand in ice for 30 minutes.
Then the mixture was centrifuged at 5000 x g for 2 minutes, and the supernatant (40 µl) was sampled and adsorbed on P81 phosphocellulose paper. […] The count obtained was defined as "A". At the same time, counts of the reaction not containing the test material and the reaction not containing both the test material and EGF were assayed, and the resulted counts were defined as "B" and "C" respectively.

SKOV3 cell line = test: Test on cancer cells in tissue culture (proliferation inhibition, MTT); assay type: cell-based; settings: Homo sapiens, SK-OV-3, 72 h
Description: Effect of the test material against the proliferation of cultivated cancer cells was examined with this SKOV3 cell line as follows:
SKOV3 cell was inoculated at a rate of 1 x 10^3 cell/well on a 96 well dish, and cultivated on a DMEM: F12 (1 : 1) medium containing 10% FCS and 0.1 mg/ml kanamycin at 37°C in a stream of 5% carbon dioxide for one day. Test material dissolved in DMSO was added to the medium (final concentration of DMSO was below 0.1%), which was cultivated for 3 days under the conditions mentioned above. Test material was replaced every 24 hours together with the medium.
Counting the number of living cells was effected by making colorimetric analysis at two wave length, 550 nm and 610 nm, in reference to the assaying method as described in Michael C. Alley et al., Cancer Research, 48, 589 (1988) using MTT reagent, and the number obtained was defined as "a".
At the same time, the count of the number of living cells obtained without adding the test material was assayed, and the number obtained was defined as "b".
Cell proliferation inhibitory rate was determined according to the following equation: Inhibitory Rate (%) = (b-a)/b x 100 [formula]

[2] = Toxicity test, intraperitoneal administration; assay type: in vivo, Mouse ddy (male)
Description: Toxicity test for the compounds of the present invention was examined in the manner as shown below. Test compound Compound No. 4 Test animal Mouse ddy (male) 16 - 20 g
Test compound was suspended in a mixture of 0.25% carboxymethyl cellulose, physiological saline, and a small amount of Tween 80 to give a test solution. This solution was administered intraperitoneally at dose of 0 mg/kg (control), 500 mg/kg and 1000 mg/kg to the test animal. Change of the body weight was measured 3 days later.

[3] = Table 5: Proliferation Inhibitory Effect Against Cultivated Cells, 3 days, read-out: IC50
[4] = Tyrosine Kinase Activity Inhibitory Effect, test material 10 µM

T1 sequence (P00533 25-1210): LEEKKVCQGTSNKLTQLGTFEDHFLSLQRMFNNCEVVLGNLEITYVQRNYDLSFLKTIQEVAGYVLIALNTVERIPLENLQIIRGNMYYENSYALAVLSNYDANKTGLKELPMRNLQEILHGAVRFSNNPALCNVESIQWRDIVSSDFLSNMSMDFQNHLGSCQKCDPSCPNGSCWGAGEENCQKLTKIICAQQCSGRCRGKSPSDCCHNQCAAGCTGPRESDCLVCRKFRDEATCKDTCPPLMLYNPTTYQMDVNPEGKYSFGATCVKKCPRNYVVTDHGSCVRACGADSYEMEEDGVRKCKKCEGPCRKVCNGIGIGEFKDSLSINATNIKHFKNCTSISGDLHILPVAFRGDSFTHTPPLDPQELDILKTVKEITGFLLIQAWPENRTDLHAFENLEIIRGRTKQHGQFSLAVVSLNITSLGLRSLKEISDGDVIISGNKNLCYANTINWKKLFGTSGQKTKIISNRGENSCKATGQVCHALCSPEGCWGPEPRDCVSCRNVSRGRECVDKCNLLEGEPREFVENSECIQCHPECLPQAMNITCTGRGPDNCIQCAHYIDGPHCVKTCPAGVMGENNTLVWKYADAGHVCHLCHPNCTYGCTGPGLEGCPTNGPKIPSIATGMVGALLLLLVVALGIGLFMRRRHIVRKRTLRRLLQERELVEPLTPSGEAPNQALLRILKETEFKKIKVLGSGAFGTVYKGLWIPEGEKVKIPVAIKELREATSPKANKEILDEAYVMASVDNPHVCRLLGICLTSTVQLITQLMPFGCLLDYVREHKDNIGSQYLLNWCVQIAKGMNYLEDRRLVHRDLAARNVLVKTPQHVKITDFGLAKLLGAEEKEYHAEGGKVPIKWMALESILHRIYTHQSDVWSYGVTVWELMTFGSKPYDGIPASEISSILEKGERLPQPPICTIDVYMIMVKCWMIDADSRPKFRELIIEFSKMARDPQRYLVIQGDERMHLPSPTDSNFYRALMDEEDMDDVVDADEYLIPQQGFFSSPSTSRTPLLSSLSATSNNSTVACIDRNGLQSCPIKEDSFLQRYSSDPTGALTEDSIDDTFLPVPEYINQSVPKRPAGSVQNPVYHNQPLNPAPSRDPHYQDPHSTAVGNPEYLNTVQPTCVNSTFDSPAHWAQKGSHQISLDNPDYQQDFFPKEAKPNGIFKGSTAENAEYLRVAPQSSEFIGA
T1 sequence (P01133 971-1023 partner limits assumed): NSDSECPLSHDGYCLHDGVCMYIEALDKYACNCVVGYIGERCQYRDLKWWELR

| Compound | pIC50 (SKOV3 cell line; [3]) | also measured |
| --- | --- | --- |
| COc1cc(C=C(C#N)C(=O)Nc2ccccc2)cc(Cl)c1O [Compound No. 1, 2-cyano-3-(3-chloro-4-hydroxy-5-methoxyphenyl) propeneanilide] | 4.76 | inhibition at 10 µM [1]: 63% |
| N#CC(=Cc1cc(O)c(O)c(Cl)c1)C(=O)Nc1ccccc1 [Compound No. 2, 2-cyano-3-(3-chloro-4,5-dihydroxyphenyl)propenanilide] | 4.69 | inhibition at 10 µM [1]: 74% |
| N#CC(=Cc1cc(O)c(O)c(Cl)c1)C(=O)Nc1cccc(Cl)c1 [Compound No. 4, N-(3-chlorophenyl)-2-cyano-3-(3-chloro-4,5-dihydroxyphenyl) propenamide] | 4.67 | dead case ([2]; 500 mg/kg intraperitoneally): No dead case was observed; dead case ([2]; 1000 mg/kg intraperitoneally): No dead case was observed |
| COc1cc(C=C(C#N)C(=O)Nc2cccc(Cl)c2)cc(F)c1O [Compound No. 7, N-(3-chlorophenyl)-2-cyano-3-(3-fluoro-4-hydroxy-5-methoxyphenyl) propenamide] |  | inhibition at 1 µM [1]: 41% |
| N#CC(=Cc1cc(O)c(O)c(F)c1)C(=O)Nc1cccc(Cl)c1 [Compound No. 8, N-(3-chlorophenyl)-2-cyano-3-(3-fluoro-4,5-dihydroxyphenyl) propenamide] | 4.63 | inhibition at 1 µM [1]: 78% |
| N#CC(=Cc1ccc(O)c(O)c1)C(=O)Nc1ccc(Br)cc1 [Compound No. 10, N-(4-bromophenyl)-2-cyano-3-(3,4-dihydroxyphenyl) propenamide] |  | inhibition at 10 µM [1, 4]: 47% |
| N#CC(=Cc1ccc(O)c(O)c1)C(=O)Nc1cccc(Br)c1 [Compound No. 11, N-(3-bromophenyl)-2-cyano-3-(3,4-dihydroxyphenyl) propenamide] |  | inhibition at 10 µM [1, 4]: 77% |
| N#CC(=Cc1ccc(O)c(O)c1)C(=O)Nc1ccc(Cl)cc1 [Compound No. 12, N-(4-chlorophenyl)-2-cyano-3-(3,4-dihydroxyphenyl) propenamide] |  | inhibition at 10 µM [1, 4]: 52% |
| N#CC(=Cc1ccc(O)c(O)c1)C(=O)Nc1cccc(Cl)c1 [Compound No. 13, N-(3-chlorophenyl)-2-cyano-3-(3,4-dihydroxyphenyl) propenamide] | 4.52 | inhibition at 1 µM [1]: 46%; inhibition at 10 µM [1]: 100% |
| Cc1cccc(NC(=O)C(C#N)=Cc2ccc(O)c(O)c2)c1 [Compound No. 14, N-(3-methylphenyl)-2-cyano-3-(3,4-dihydroxyphenyl) propenamide] |  | inhibition at 10 µM [1]: 77% |
| N#CC(=Cc1cc(O)c(O)cc1[N+](=O)[O-])C(=O)Nc1cccc(Cl)c1 [Compound No. 16, N-(3-chlorophenyl)-2-cyano-3-(4,5-dihydroxy-2-nitrophenyl) propenamide] | 4.62 |  |
| N#CC(C(=O)Nc1ccccc1)=C(O)c1ccc(O)c(O)c1 [Compound No. 119, 2-cyano-3-hydroxy-3-(3,4-dihydroxyphenyl) propenanilide] | 4.62 |  |
| N#CC(=Cc1ccc(O)c(O)c1)C(=O)Nc1ccccc1 [Reference 1), reference compound] |  | pIC50 (SKOV3 cell line): 4.46 |
| O=CNC=Cc1ccc(O)c(O)c1 [Reference 3), reference compound] |  | pIC50 ([1]; Table 3, tyrosine kinase inhibition): 4.92 |

Continued, in another order:

| pIC50 (SKOV3 cell line; [3]) | Compound | also measured |
| --- | --- | --- |
| 4.68 | N#CC(=Cc1cc(O)c(O)c(Br)c1)C(=O)Nc1cccc(Cl)c1 [Compound No. 6, N-(3-chlorophenyl)-2-cyano-3-(3-bromo-4,5-dihydroxyphenyl) propenamide] |  |
| 4.77 | N#CC(=Cc1cc(O)c(O)c(Br)c1Br)C(=O)Nc1cccc(Cl)c1 [Compound No. 9, N-(3-chlorophenyl)-2-cyano-3-(2,3-dibromo-4,5-dihydroxyphenyl) propenamide] |  |
| 4.47 | N#CC(=Cc1cc(O)c(O)c(C#N)c1)C(=O)Nc1cccc(Cl)c1 [Compound No. 15, N-(3-chlorophenyl)-2-cyano-3-(3-cyano-4,5-dihydroxyphenyl) propenamide] |  |
| 4.80 | N#CC(=Cc1cc(O)c(O)c(C(F)(F)F)c1)C(=O)Nc1cccc(Cl)c1 [Compound No. 98, N-(3-chlorophenyl)-2-cyano-3-[3,4-dihydroxy-5-(trifluoromethyl)phenyl] propenamide] |  |
| 4.11 | CCOc1cc(C=C(C#N)C(N)=O)cc(CSc2ccccc2)c1O [Reference 2), reference compound] |  |
| 4.72 | N#CC(=Cc1cc(Br)c(O)c(Br)c1)C(=O)Nc1cccc(Cl)c1 [compound 100] |  |
| 4.89 | COc1cc(C=C(C#N)C(=O)Nc2ccccc2)cc(Br)c1O [compound 105] |  |
| 4.85 | Cc1cc(C=C(C#N)C(=O)Nc2cccc(Cl)c2)cc(O)c1O [compound 110] |  |
